In patent US20230416262A1, “TRPML MODULATORS” (Casma Therapeutics, Inc., priority 2020, published 2023):

Test system: TFEB
Assay: TFEB nuclear translocation assay
Type: cell-based
Settings: Homo sapiens; HeLa wt or HeLa TRPML1 KO cells, treated for 2 hrs; ratio of nuclear to ring-region TFEB intensity
Description: For the TFEB nuclear translocation assay, HeLa wt or HeLa TRPML1 KO cells were plated at 2700 cells/well into black-walled, 384-well Cell carrier Ultra tissue culture treated plates in complete media and incubated overnight. The next day, cells are treated for 2 hrs with compounds and incubated at 37° C. Cells were then fixed for 30 minutes at room temperature in 4% final PFA and washed five times with 90 μL PBS. PBS is aspirated from the wells and the cells are blocked with 7.5 μL blocking buffer (1.1 PBS/Odyssey block buffer containing 0.1% triton x-100 and 1% goat serum). After 30-60 minutes of block, 7.5 μL of primary anti-TFEB (rabbit) antibody is added for a final dilution of 1:200 antibody in 15 μL blocking buffer. Plates are incubated overnight at 4° C. The following day, plates are washed again into PBS, 90 μL with 5 washes, all PBS is aspirated from the wells and the cells are incubated for 1 hr in 1:1000 goat-anti rabbit Alexa 488 secondary antibody, also containing 10 μg/mL Hoechst 33342. After the 1 hr RT incubation, plates are washed a final time into PBS, sealed with foil and imaged with an automated epifluorescence microscopy (PerkinElmer Operetta CLS). Four different fields were imaged per well using ×20 magnification for DAPI and FITC filter sets. Images were quantified using PerkinElmer Harmony software, briefly: apply flatfield correction (basic/advanced) for input images. Use the Find Nuclei building block with channel set at Hoechst to find the nuclei. Use the Find cytoplasm building block with channel set to Alexa 488 to find the cytoplasm. Use select cell region with Channel set at Alexa 488 and region of interest as Nuclei and define outer border at 0 μm and inner at 45 μm to cover complete nuclei. Use select cell region with Channel set at Alexa 488 and region of interest as ring region and define outer border at −5 μm and inner at 0 μm to define a ring around the nucleus. Use the find calculate intensity parameter to calculate intensity of the nuclear region and the ring region. Define results as Number of nuclei and ratio of A/B where A is Intensity of Nuclei and B is intensity of the ring region.

O=S(=O)(Cc1ccc2c(c1)COCC2)N1CC2(CCCC2)c2ccccc21 [Compound I-34, 1′-[(3,4-dihydro-1H-2-benzopyran-7-yl)methanesulfonyl]-1′,2′-dihydrospiro[cyclopentane-1,3′-indole]]
EC50: 2.01 to 8 µM

O=S(=O)(c1ccc2c(c1)COC2)N1CC2(CCCC2)c2ccccc21 [Compound I-36, 1′-(1,3-dihydro-2-benzofuran-5-sulfonyl)-1′,2′-dihydrospiro[cyclopentane-1,3′-indole]]
EC50: ≥ 10 µM

O=S(=O)(c1ccc2c(c1)COCC2)N1CC2(CCCC2)c2ccccc21 [Compound I-37]
EC50: 2.01 to 8 µM

O=S(=O)(CC(F)c1ccccc1)N1CC2(CCCC2)c2ccccc21 (stereo not shown) [Compound I-38, 1′-(2-fluoro-2-phenylethanesulfonyl)-1′,2′-dihydrospiro[cyclopentane-1,3′-indole]]
EC50: ≥ 10 µM

O=S(=O)(c1cnc(-c2ccccc2)o1)N1CC2(CCCC2)c2ccccc21 [Compound I-39, 1′-[(2-phenyl-1,3-oxazol-5-yl)sulfonyl]-1′,2′-dihydrospiro[cyclopentane-1,3′-indole]]
EC50: ≥ 10 µM

O=S(=O)(C1=Cc2ccccc2OCC1)N1CC2(CCCC2)c2ccccc21 [Compound I-40, 1′-(2,3-dihydro-1-benzoxepine-4-sulfonyl)-1′,2′-dihydrospiro[cyclopentane-1,3′-indole]]
EC50: 2.01 to 8 µM

O=S(=O)(C1=Cc2ccccc2OC1)N1CC2(CCCC2)c2ccccc21 [Compound I-41, 1′-(2H-chromene-3-sulfonyl)-1′,2′-dihydrospiro[cyclopentane-1,3′-indole]]
EC50: 8.01 to 9.99 µM

O=S(=O)(C1=Cc2ccccc2CC1)N1CC2(CCCC2)c2ccccc21 [Compound I-42, 1′-(3,4-dihydronaphthalene-2-sulfonyl)-1′,2′-dihydrospiro[cyclopentane-1,3′-indole]]
EC50: 2.01 to 8 µM

O=S(=O)(c1ccn(C2CC2(F)F)n1)N1CC2(CCCC2)c2ccccc21 (stereo not shown) [Compound I-43, 1′-{[1-(2,2-difluorocyclopropyl)-1H-pyrazol-3-yl]sulfonyl}-1′,2′-dihydrospiro[cyclopentane-1,3′-indole]]
EC50: ≥ 10 µM

Cc1ccc(CS(=O)(=O)N2CC3(CCCC3)c3ccccc32)c(F)c1 [Compound I-44, 1′-[(2-fluoro-4-methylphenyl)methanesulfonyl]-1′,2′-dihydrospiro[cyclopentane-1,3′-indole]]
EC50: 2.01 to 8 µM

O=S(=O)(Cc1ccc(C(F)F)cc1)N1CC2(CCCC2)c2ccccc21 [Compound I-45, 1′-{[4-(difluoromethyl)phenyl]methanesulfonyl}-1′,2′-dihydrospiro[cyclopentane-1,3′-indole]]
EC50: 2.01 to 8 µM

O=S(=O)(Cc1cccc(Cl)c1)N1CC2(CCCC2)c2ccccc21 [Compound I-46, 1′-[(3-chlorophenyl)methanesulfonyl]-1′,2′-dihydrospiro[cyclopentane-1,3′-indole]]
EC50: 2.01 to 8 µM

Cc1ccc(F)c(CS(=O)(=O)N2CC3(CCCC3)c3ccccc32)c1 [Compound I-47, 1′-[(2-fluoro-5-methylphenyl)methanesulfonyl]-1′,2′-dihydrospiro[cyclopentane-1,3′-indole]]
EC50: 2.01 to 8 µM

O=S(=O)(c1cccc(C2CC2(F)F)c1)N1CC2(CCCC2)c2ccccc21 (stereo not shown) [Compound I-49, 1′-[3-(2,2-difluorocyclopropyl)benzenesulfonyl]-1′,2′-dihydrospiro[cyclopentane-1,3′-indole]]
EC50: 2.01 to 8 µM

CC(C)(O)c1ccc(S(=O)(=O)N2CC3(CCCC3)c3ccccc32)cc1 [Compound I-50, 2-[4-({1′,2′-dihydrospiro[cyclopentane-1,3′-indol]-1′-yl}sulfonyl)phenyl]propan-2-ol]
EC50: ≥ 10 µM

CC1(C)Cc2cc(S(=O)(=O)N3CC4(CCCC4)c4ccccc43)ccc2C1=O [Compound I-51, 5-({1′,2′-dihydrospiro[cyclopentane-1,3′-indol]-1′-yl}sulfonyl)-2,2-dimethyl-2,3-dihydro-1H-inden-1-one]
EC50: 8.01 to 9.99 µM

CN(c1ccc(S(=O)(=O)N2CC3(CCCC3)c3ccccc32)cc1)S(C)(=O)=O [Compound I-52, N-[4-({1′,2′-dihydrospiro[cyclopentane-1,3′-indol]-1′-yl}sulfonyl)phenyl]-N-methylmethanesulfonamide]
EC50: ≥ 10 µM

COC(=O)C(C)(C)c1ccc(S(=O)(=O)N2CC3(CCCC3)c3ccccc32)cc1 [Compound I-53, methyl 2-[4-({1′,2′-dihydrospiro[cyclopentane-1,3′-indol]-1′-yl}sulfonyl)phenyl]-2-methylpropanoate]
EC50: ≥ 10 µM

CC(C)(CO)c1ccc(S(=O)(=O)N2CC3(CCCC3)c3ccccc32)cc1 [Compound I-54, 2-[4-({1′,2′-dihydrospiro[cyclopentane-1,3′-indol]-1′-yl}sulfonyl)phenyl]-2-methylpropan-1-ol]
EC50: ≥ 10 µM

CN1Cc2cc(S(=O)(=O)N3CC4(CCCC4)c4ccccc43)ccc2C1=O [Compound I-55, 5-({1′,2′-dihydrospiro[cyclopentane-1,3′-indol]-1′-yl}sulfonyl)-2-methyl-2,3-dihydro-1H-isoindol-1-one]
EC50: ≥ 10 µM

COC(C)(C)c1ccc(S(=O)(=O)N2CC3(CCCC3)c3ccccc32)cc1 [Compound I-56, 1′-[4-(2-methoxypropan-2-yl)benzenesulfonyl]-1′,2′-dihydrospiro[cyclopentane-1,3′-indole]]
EC50: ≥ 10 µM

CC1(C)OCc2ccc(S(=O)(=O)N3CC4(CCCC4)c4ccccc43)cc21 [Compound I-58, 1′-[(3,3-dimethyl-1,3-dihydro-2-benzofuran-5-yl)sulfonyl]-1′,2′-dihydrospiro[cyclopentane-1,3′-indole]]
EC50: 2.01 to 8 µM

O=S(=O)(c1ccc2c(c1)CCOC2)N1CC2(CCCC2)c2ccccc21 [Compound I-59, 1′-(3,4-dihydro-1H-2-benzopyran-6-sulfonyl)-1′,2′-dihydrospiro[cyclopentane-1,3′-indole]]
EC50: ≥ 10 µM

COC(C)(C)c1cccc(S(=O)(=O)N2CC3(CCCC3)c3ccccc32)c1 [Compound I-60, 1′-[3-(2-methoxypropan-2-yl)benzenesulfonyl]-1′,2′-dihydrospiro[cyclopentane-1,3′-indole]]
EC50: 8.01 to 9.99 µM

CC(C)(O)c1cccc(S(=O)(=O)N2CC3(CCCC3)c3ccccc32)c1 [Compound I-61, 2-[3-({1′,2′-dihydrospiro[cyclopentane-1,3′-indol]-1′-yl}sulfonyl)phenyl]propan-2-ol]
EC50: ≥ 10 µM

COC(=O)c1ccc(CS(=O)(=O)N2CC3(CCCC3)c3ccccc32)cc1 [Compound I-62, methyl 4-[({1′,2′-dihydrospiro[cyclopentane-1,3′-indol]-1′-yl}sulfonyl)methyl]benzoate]
EC50: ≥ 10 µM

CS(=O)(=O)Nc1ccc(S(=O)(=O)N2CC3(CCCC3)c3ccccc32)cc1 [Compound I-63, N-[4-({1′,2′-dihydrospiro[cyclopentane-1,3′-indol]-1′-yl}sulfonyl)phenyl]methanesulfonamide]
EC50: ≥ 10 µM

O=S(=O)(c1ccc2c(c1)OC1(CCC1)O2)N1CC2(CCCC2)c2ccccc21 [Compound I-64, 1′-({spiro[1,3-benzodioxole-2,1′-cyclobutan]-6-yl}sulfonyl)-1′,2′-dihydrospiro[cyclopentane-1,3′-indole]]
EC50: 2.01 to 8 µM

CS(=O)(=O)c1ccc(S(=O)(=O)N2CC3(CCN(c4ccc(Cl)cc4F)CC3)c3ccccc32)cc1 [Compound I-65, 1′-(4-chloro-2-fluorophenyl)-1-((4-(methylsulfonyl)phenyl)sulfonyl)spiro[indoline-3,4′-piperidine]]
EC50: ≤ 2 µM

CC1(C)OCc2cc(S(=O)(=O)N3CC4(CCCC4)c4ccccc43)ccc21 [Compound I-66, 1′-((1,1-dimethyl-1,3-dihydroisobenzofuran-5-yl)sulfonyl)spiro[cyclopentane-1,3′-indoline]]
EC50: 2.01 to 8 µM

CN(C)S(=O)(=O)c1ccc(S(=O)(=O)N2CC3(CCOCC3)c3ccccc32)cc1 [Compound I-69, 4-({1,2-dihydrospiro[indole-3,4′-oxan]-1-yl}sulfonyl)-N,N-dimethylbenzene-1-sulfonamide]
EC50: ≤ 2 µM

CN(C)S(=O)(=O)c1ccc(S(=O)(=O)N2CC3(CCCC3)c3cnccc32)cc1 [Compound I-70, 4-({1′,2′-dihydrospiro[cyclopentane-1,3′-pyrrolo[3,2-c]pyridin]-1′-yl}sulfonyl)-N,N-dimethylbenzene-1-sulfonamide]
EC50: ≥ 10 µM

CN(C)S(=O)(=O)c1ccc(S(=O)(=O)N2CC3(CCCC3)c3cccnc32)cc1 [Compound I-71, 4-({1′,2′-dihydrospiro[cyclopentane-1,3′-pyrrolo[2,3-b]pyridin]-1′-yl}sulfonyl)-N,N-dimethylbenzene-1-sulfonamide]
EC50: ≥ 10 µM

CN(C)S(=O)(=O)c1ccc(S(=O)(=O)N2CC3(CCC(O)CC3)c3ccccc32)cc1 (stereo not shown) [Compound I-72, 4-({4-hydroxy-1′,2′-dihydrospiro[cyclohexane-1,3′-indol]-1′-yl}sulfonyl)-N,N-dimethylbenzene-1-sulfonamide]
EC50: 2.01 to 8 µM
